pIC50: −log10 of the molar value. Read-outs that look alike come from different tables or passages of the source.
What was measured:
[1] = tested on: NIH/3T3 mouse fibroblast cell line; experiment: MTT assay, tumour selectivity on non-cancerous fibroblasts; format: cell-based; details: for inhibition at 10 µM: NIH3T3, 10 µM; for inhibition at 30 µM: NIH3T3, 30 µM; for pIC50: read-out: calculated IC50 NIH/3T3
Experimental: (§1) We evaluated the cytotoxic activity of the newly synthesised arylated compounds 13–17 by the MTT assay[37] on a panel of human adherent cancer cell lines. The panel included breast (MCF-7 and MDA MB-231) and cervical (HeLa, SiHa and C33A) cancer cell lines differing in receptorial or HPV status. Tumour selectivity was determined on the NIH/3T3 mouse fibroblast cell line.
(§2) Briefly, the panels of breast and cervical cancerous cell lines, differing by their receptorial and HPV status were used, precisely MCF-7 (ER, PR and HER2 positive) and MDA-MB-231 (TNBC) breast carcinoma and HeLa (HPV18+), SiHa (HPV16+), C33A (HPV-) cervical carcinoma cells. Non-cancerous NIH/3T3 mouse fibroblast cell line was used for selectivity study. MCF-7, MDA-MB-231, Hela and NIH/3T3 cell lines were purchased from ECACC (European Collection of Cell Cultures, Salisbury, UK), while SiHa and C33A from ATCC (American Tissue Culture Collection, LGC Standards GmbH, Wesel, Germany). Cells were maintained in Eagle's Minimum Essential Medium (EMEM, Capricorn Scientific GmbH, Ebsdorfergrund, Germany) supplemented with 10% heat-inactivated fetal bovine serum (FBS), 1% non-essential amino acids (NEAA), and 1% antibiotic-antimycotic mixture (penicillin–streptomycin). The cells were maintained at 37 °C in a humidified atmosphere containing 5% CO2.
(§3) For measurements cells were seeded for 96-well plates at a density of 5 000/well, except for C33A, which was seeded in 10 000cells for each well. After overnight standing cells were treated with 10 and 30 µM solutions for screening and increasing concentrations (0.1-30.0 µM) of the test compounds were used for concentration-response curves. After incubation for 72 hours under cell culturing condition 5 mg/ml MTT (3-(4,5-[…])-2,5-diphenyl-2H-tetrazolium bromide) solution was added for another 4 h. The precipitated formazan crystals were solubilized in DMSO and the absorbance was measured at 545 nm with a microplate reader (BMG Labtech, Ortenberg, Germany). Wells with untreated cells were utilized as control, and inhibition % were calculated by GraphPad Prism v 9.0 software (GraphPad Software, San Diego, CA, USA). If the growth-inhibition exceeded 70% at 30 µM concentration during the screening concentration-response curves were fitted and IC50 values were calculated by GraphPad Prism v 9.0. The experiments were performed with five parallel wells for each experimental condition and repeated at least twice.

MDA-MB-231 = experiment: MTT antiproliferative assay, MDA-MB-231; format: cell-based, human; details: for inhibition at 10 µM: MDA-MB-231, 10 µM; for inhibition at 30 µM: MDA-MB-231, 30 µM; for pIC50: read-out: calculated IC50 MDA-MB-231
Experimental: as §1, §2, §3

SiHa = experiment: MTT antiproliferative assay, SiHa; format: cell-based, human; details: 72 h; for pIC50: read-out: calculated IC50 SiHa
Experimental: as §1, §2, §3

HeLa = experiment: MTT antiproliferative assay, HeLa; format: cell-based, human; details: 72 h; for pIC50: read-out: calculated IC50 HeLa
Experimental: as §1, §2, §3

C33A = experiment: MTT antiproliferative assay, C33A; format: cell-based, human; details: 72 h; for pIC50: read-out: calculated IC50 C33A
Experimental: as §1, §2, §3

MCF-7 = experiment: MTT antiproliferative assay, MCF-7; format: cell-based, human; details: for inhibition at 10 µM: MCF7, 10 µM; for inhibition at 30 µM: MCF7, 30 µM; for pIC50: read-out: calculated IC50 MCF-7
Experimental: as §1, §2, §3

Compound	inhibition at 10 µM ([1]; Mus musculus, 72 h)	inhibition at 30 µM ([1]; Mus musculus, 72 h)	pIC50 ([1]; Mus musculus, NIH3T3, 72 h)	inhibition at 10 µM (MDA-MB-231; Homo sapiens, 72 h)	inhibition at 30 µM (MDA-MB-231; Homo sapiens, 72 h)	pIC50 (MDA-MB-231; Homo sapiens, MDA-MB-231, 72 h)	inhibition at 10 µM (SiHa; Homo sapiens, SiHa)	inhibition at 30 µM (SiHa; Homo sapiens, SiHa)	pIC50 (SiHa; Homo sapiens, SiHa)	inhibition at 10 µM (HeLa; Homo sapiens, HeLa)	inhibition at 30 µM (HeLa; Homo sapiens, HeLa)	pIC50 (HeLa; Homo sapiens, HeLa)	inhibition at 10 µM (C33A; Homo sapiens, C-33-A)	inhibition at 30 µM (C33A; Homo sapiens, C-33-A)	pIC50 (C33A; Homo sapiens, C-33-A)	inhibition at 10 µM (MCF-7; Homo sapiens, 72 h)	inhibition at 30 µM (MCF-7; Homo sapiens, 72 h)	pIC50 (MCF-7; Homo sapiens, MCF7, 72 h)	other results
CCCCOC1(c2cc(=O)c3c(Oc4ccccc4)cc(O)cc3o2)C=CC(=O)C=C1 [17a, 2-(1-Butoxy-4-oxocyclohexa-2,5-dienyl)-7-hydroxy-5-phenoxy-chromen-4-one]	94.2%	98.7%	5.63	95.7%	96.9%	6.14	86.2%	95%	5.89	93.6%	94.3%	5.94	98.1%	98.5%	6.37	93.1%	93.7%	6.01	
CCCCOC1(c2cc(=O)c3c(Oc4ccc(Br)cc4)cc(O)cc3o2)C=CC(=O)C=C1 [17b, 5-(4-Bromophenoxy)-2-(1-butoxy-4-oxocyclohexa-2,5-dienyl)-7-hydroxy-chromen-4-one]	97.5%	98.6%	5.79	97%	97.9%	6.14	84.5%	93.8%	5.86	97%	97.7%	5.96	97.7%	97.8%	6.28	97.4%	98.4%	5.94	
N.N.[Cl][Pt][Cl] [Cisplatin, reference compound]																			pIC50 ([1]; 72 h): 5.33; pIC50 (MDA-MB-231; 72 h): 4.72; pIC50 (SiHa): 5.11; pIC50 (HeLa): 4.91; pIC50 (C33A): 5.43; pIC50 (MCF-7; 72 h): 5.24
C[C@@]12CC[C@@H]3c4c(cc(OCc5cn(Cc6ccccc6)nn5)cc4-c4ccc(Br)cc4)CC[C@H]3[C@@H]1CCC2=O [compound 16, 3-[{1-Benzyl-1H-1,2,3-triazol-4-yl}methoxy]-1-(4-bromophenyl)-13a-estra-1,3,5 (10)-trien-17-one]	< 10%	11.2%		< 10%	< 10%		< 10%	10.4%		22.4%	33.1%		< 10%	< 10%		< 10%	< 10%		
